Measured values as given in patent publication US11773381B2, “Cell penetrating peptide, conjugate comprising same, and composition comprising conjugate” (GemVax & KAEL CO., LTD., priority 2012, dated 2023).

These sequences were tested on HeLa cell (assay: Cell penetration of pep(CPP)-FITC conjugates in HeLa cell line, flow cytometry (FACS)). Settings: HeLa cells, 20 μM of each carrier peptide combined with FITC, 37° C. for an hour, control cells treated only FITC.
Type: cell-based, Homo sapiens
Protocol: Homo sapiens cervix adenocarcinoma cell line as HeLa cell lines were purchased from ATCC (American Type Cell Culture). The cells were cultured in MEM supplemented with 10% fetal bovine serum (Invitrogen, USA), Earle's salts, non-essential amino acids, sodium pyruvate and 100 μg/ml penicillin and 10 units/ml streptomycin and cultured at 37° C., 5% CO2 incubator.
Flow cytometry and Confocal microscope analysis were performed to compare the between degree of cellular uptake of the cells were treated with SEQ ID NO: 1 to SEQ ID NO: 156, pep (CPP) and control.
The cell line was divided in a 6-well plate and cultured in a medium containing 10% fetal bovine serum (Invitrogen, USA), […] at 37° C., 5% CO2 incubator for 12 hours. After washing the cell line with PBS, starvation was induced in a Minimum Essential Medium for an hour. 20 μM of each carrier peptide was treated and cultured at 37° C. for an hour. After repeating the step of washing the cells with PBS for three times, Trypsin-EDTA was treated form 10 mins at 37° C. to separate the carrier peptide on the outside of the cell. cells were collected with refrigerated PBS and centrifugation was performed to repeat the step of washing the cells for three times. After then, the cells were suspended in 0.5 ml of PBS containing 4% Paraformaldehyde and fluorescence of the cells was analyzed using FACS Calibur (Becton Dickinson). The cellular uptake aspect of control and various peptides combined with FITC was compared and analyzed by MFI (Mean Fluorescence Intensity).
Analysis results shown in FIG. 1 to FIG. 23 are given in detail in Table 3 below.
For “SYLPNTVTDALRGSGAWGLL (listed as Homo sapiens) [pep56]”, the “cellular uptake, MFI (Mean Fluorescence Intensity)” value (shortened to “cellular uptake, MFI”) was 28.61 ± 0.44.
“THCPLRAAVTPAAGVCAREK (listed as Homo sapiens) [pep128]” was tested, and the “cellular uptake, MFI” value was 14.36 ± 1.21.
For “TKKFISLGKHAKLSLQELTW (listed as Homo sapiens) [pep132]”, the “cellular uptake, MFI” value was 26.39 ± 0.95.
In the case of “TQLSRKLPGTTLTALEAAAN (listed as Homo sapiens) [pep105]”, the “cellular uptake, MFI” value is reported as 13.23 ± 2.21.
In the case of “VAQCLVCVPWDARPPPAAPS (listed as Homo sapiens) [pep110]”, the “cellular uptake, MFI” value is reported as 22.04 ± 0.77.
For “VARVLQRLCERGAKNVLAFG (listed as Homo sapiens) [pep54]”, the “cellular uptake, MFI” value was 388.45 ± 2.94.
For “VETIFLGSRPWMPGTPRRLP (listed as Homo sapiens) [pep68]”, the “cellular uptake, MFI” value was 27.28 ± 1.28.
“VLGLDDIHR (listed as Homo sapiens) [pep23]” was tested, and the “cellular uptake, MFI” value was 15.68 ± 2.03.
“VLGLDDIHRA (listed as Homo sapiens) [pep13]” was tested, and the “cellular uptake, MFI” value was 14.01 ± 1.32.
“VLNYERARR (listed as Homo sapiens) [pep25]” was tested, and the “cellular uptake, MFI” value was 18.62 ± 0.69.
For “VLPLATFVRRLGPQGWRLVQ (listed as Homo sapiens) [pep51]”, the “cellular uptake, MFI” value was 59.81 ± 1.38.
For “VRRYAVVQKAAHGEVRKAFK (VRRYAVVQKAAHGHVRKAFK; listed as Homo sapiens) [pep87]”, the “cellular uptake, MFI” value was 38.35 ± 2.27.
For “VTETTFQKNRLFFYR (listed as Homo sapiens) [pep37]”, the “cellular uptake, MFI” value was 20.81 ± 1.02.
With “WMPGTPRRLPRLPQRYWQMR (listed as Homo sapiens) [pep126]” the “cellular uptake, MFI” value was 3362.29 ± 3.24.
In the case of “WSKLQSIGIRQHLKRVQLRE (listed as Homo sapiens) [pep79]”, the “cellular uptake, MFI” value is reported as 31.2 ± 1.52.
In the case of “YERARRPGL (listed as Homo sapiens) [pep11]”, the “cellular uptake, MFI” value is reported as 10.46 ± 1.99.
With “YERARRPGLL (listed as Homo sapiens) [pep20]” the “cellular uptake, MFI” value was 20.73 ± 2.45.
